Test results reported in patent EP0596449A2, “Serotonin receptor antagonists for treating myocardial ischemia” (E.R. SQUIBB & SONS, INC., priority 1992, dated 1994).
Entries after “also recorded” stand apart in the source; their conditions may differ. Marks after values point to notes of the source that are not given here.

How the values were obtained:
[1] = test system: alpha, Adrenoceptors; test: Methoxamine-induced contraction in rat aortic rings (alpha1 blocking potency); conditions: 45 minute incubation; Figure 5A
Method: In order to determine the alpha1 blocking potency of cinanserin, ketanserin and LY 53857, their effect on methoxamine induced aortic constriction was determined. Male Sprague-Dawley rats were sacrificed using C02. Aortic rings (3 mm in width) were cut, denuded of endothelium by gently rolling the rings on moistened filter paper, and mounted on stainless steel hooks in 20 mL muscle chambers containing oxygenated physiological salt solution (PSS) of the following composition (in mM): 118.4 NaCI, 4.7 KCI, 1.2 MgS04, 1.2 KH2P04, 1.9 CaC12, 25.0 NaHC03, 10.1 D-glucose, and 0.01 mM Na2EDTA maintained at 37 °C. The hooks were connected to Grass FT03C transducers for recording of isometric force development. The rings were stretched to 2 g preload during the equilibration period. During equilibration the rings were periodically stimulated with 24 mM KCI to determine contractility. The effectiveness of endothelial removal was confirmed by the absence of relaxation by 1 µM acetylcholine of a contraction in response to 0.01 µM phenylephrine.
Various concentrations of the test compounds were then added to individual baths and allowed a 45 minute incubation before cumulative concentration response curves for methoxamine (1 nM-30 /1.M) were obtained. Solvent controls were run in parallel. […]

[2] = test system: globally ischemic, isolated rat hearts; test: Effect of 5HT, alone or with 5HT2 antagonist, on time to contracture and pre-ischemic function in isolated rat hearts; conditions: for Coronary Flow / HR / LVDP: pre-ischemic
Method: To determine the effect of serotonin receptor agonists and antagonists, male Sprague-Dawley rats (450-550 g) were prepared as described below. The rats were anesthetized using 100 mg/kg sodium pentobarbital (i.p.). They were intubated and then treated with i.v. heparin (1000 U/kg). While being mechanically ventilated, their hearts were perfused in situ via retrograde cannulation of the aorta. […] A water-filled latex balloon attached to a metal cannula was then inserted into the left ventricle and connected to a Statham pressure transducer for measurement of left ventricular pressure. […] Pre-ischemia or pre-drug function, heart rate and coronary flow (extracorporeal electromagnetic flow probe) were then measured. Left ventricular developed pressure (LVDP) was calculated from the difference between left ventricular peak systolic pressure and EDP. Cardiac temperature was maintained throughout the experiment by submerging the hearts in 37 ° C buffer which was allowed to accumulate in a stoppered, heated chamber. In another series of hearts, the effect of 5HT on the severity of ischemia was determined. […] Vehicle (0.1% DMSO) given 10 minutes before ischemia (n = 5). The hearts were subjected to global ischemia as described above and time to contracture determined. Reperfusion function and LDH release were not determined in this group.

[3] = test system: globally ischemic rat hearts; test: Global ischemia (25 min) and reperfusion (30 min) in isolated perfused rat hearts, 5HT2 antagonists; conditions: for EC25: Rattus norvegicus, drug given 10 minutes before global ischemia, read-out: EC25 (concentration which increased the time to contracture 25% above vehicle group values)
Method: (§1) To determine the effect of serotonin receptor agonists and antagonists, male Sprague-Dawley rats (450-550 g) were prepared as described below. The rats were anesthetized using 100 mg/kg sodium pentobarbital (i.p.). They were intubated and then treated with i.v. heparin (1000 U/kg). While being mechanically ventilated, their hearts were perfused in situ via retrograde cannulation of the aorta. The hearts were then excised and […] moved to a Langendorff apparatus where they were perfused with Krebs-henseleit bicarbonate buffer solution ((mM): 112 NaCI, 25 NaHC03, 5 KCI, 1.2 MgS04, 1 KH2P04, 1.25 CaC12, 2 pyruvate and 11.5 dextrose bubbled with 95% 02 - 5% C02) at a constant perfusion pressure (85 mm Hg). A water-filled latex balloon attached to a metal cannula was then inserted into the left ventricle and connected to a Statham pressure transducer for measurement of left ventricular pressure. The hearts were allowed to equilibrate for 15 min, at which time end diastolic pressure (EDP) was adjusted to 5 mm Hg and this balloon volume was maintained for the duration of the experiment. Pre-ischemia or pre-drug function, heart rate and coronary flow (extracorporeal electromagnetic flow probe) were then measured. Left ventricular developed pressure (LVDP) was calculated from the difference between left ventricular peak systolic pressure and EDP. Cardiac temperature was maintained throughout the experiment by submerging the hearts in 37 ° C buffer which was allowed to accumulate in a stoppered, heated chamber.
The model of global ischemia in isolated rat hearts was designed such that any protective effects observed are generally due to a direct cardioprotective effect and not to effects on cornonary or peripheral vascular tone. Also, because the hearts are perfused with an oxygenated buffer solution, platelets or the normal components of an inflammatory response are probably not important mediators of the ischemic/reperfusion injury observed in this model. […] Agents which exert their protective effects either through their effects on the peripheral or coronary vasculature such as nitrates or agents which act on blood or act on some component of the inflammatory response such as thromboxane A2 receptor antagonists are generally ineffective in this model.
The hearts were divided into the following groups: 1. Vehicle (0.1% DMSO) treatment beginning 10 minutes before the onset of ischemia (n = 8). 2. 0.3-10 µM ketanserin treatment beginning 10 minutes before the onset of ischemia (n = 4-5 per group). 3. 10 µM ketanserin given only during reperfusion (n = 4). 4. 0.1-10 µM cinanserin treatment beginning 10 minutes before global ischemia (n = 4-10). 5. 1-10 µM LY 53857 treatment beginning 10 minutes before the onset of ischemia (n = 4 per group). After 10 minutes of vehicle or drug pretreatment, the hearts were subjected to 25 minutes of total global ischemia which was initiated by shutting off the perfusate flow. Reperfusion was begun (without drug except in the case of group 3 above) and allowed to continue for 30 minutes. At this time, final measurements of EDP, LVDP and coronary flow were obtained. Cumulative LDH relase was measured in the reperfusate and was used as the index of cellular and membrane viability. In all hearts, the time to contracture during ischemia was measured and used as an index of cardioprotection during ischemia. Time to contracture is defined as the time (minutes) necessary for the first 5 mm Hg increase in EDP to occur during global ischemia. The data were expressed as the percent change in time to contracture from vehicle.

[4] = test system: globally ischemic rat hearts; test: Parachlorophenylalanine pretreatment of rats, then global ischemia/reperfusion of the isolated hearts; conditions: for time to contracture: parachlorophenylalanine pretreatment i.p., compared to vehicle, p<0.05, Figure 4
Method: as §1
To determine if endogenous 5HT is mediating a pro-ischemic effect in isolated hearts, rats, prepared as described below were treated with parachlorophenylalanine. Parachlorophenylalanine depletes brain and peripheral 5HT by inhibition of tryptophan hydroxylase, the rate limiting step in 5HT synthesis. […] Male Sprague-Dawely rats (450-550 g) were injected with i.p. 105 mg/kg parachlorophenylalanine (n = 10) or its vehicle (water, n = 6) on three consecutive days. On the fourth day, the rats were anesthetized with 100 mg/kg sodium pentobarbital. The hearts were then excised and moved to an isolated heart apparatus as described above. The hearts were then subjected to 25 minutes to global ischemia and 30 minutes of reperfusion. Time to contracture, recovery of contractile function, coronary flow and cumulative LDH release were measured as described above.

[5] = 30 μM 5HT + 1 μM Cinanserin, Post-Drug
[6] = 30 μM 5HT + 1 μM Cinanserin, Pre-Drug
[7] = i.p. 105 mg/kg on three consecutive days, 30 Min. Post-Ischemia
[8] = i.p. 105 mg/kg on three consecutive days, Pre-Ischemia

COc1cc2nc(N3CCN(C(=O)c4ccco4)CC3)nc(N)c2cc1OC [prazosin]
concentration from which the methoxamine-tension curve was shifted to the right [1]: 1 nM

CN(C)CCCSc1ccccc1NC(=O)/C=C/c1ccccc1 [Cinanserin, cinanserin]
Coronary Flow [2, 5]: 18 ± 1 mL/min/g
HR [2, 5]: 340±11^a,b beats/min
LVDP [2, 5]: 122±5 mmHg
Coronary Flow [2, 6]: 19 ± 1 mL/min/g
HR [2, 6]: 297±9 beats/min
LVDP [2, 6]: 139±7 mmHg
effect on the pro-ischemic effect of 5HT (time to contracture) ([2]; 30 µM 5HT plus antagonist, both given 10 minutes before ischemia, Figure 3): completely abolished this pro-ischemic effect; also recorded: abolished the pro-ischemic effect of serotonin
reperfusion LDH release ([3]; 1-10 µM, compared to vehicle, Figure 2A): Significant reductions in LDH
EC25 [3]: 1.6 µM

N[C@@H](Cc1ccc(Cl)cc1)C(=O)O (racemic) [PCPA, parachlorophenylalanine]
Coronary Flow [4, 7]: 18±2^b mL/min/g
HR [4, 7]: 275±8^b beats/min
LVDP [4, 7]: 60±7^a,b mmHg
LDH Release ([4]; i.p. 105 mg/kg on three consecutive days, 30 Min. Post-Ischemia (during reperfusion)): 15±2^b u/g
Coronary Flow [4, 8]: 18 ± 1 mL/min/g
HR [4, 8]: 271±8 beats/min
LVDP [4, 8]: 128±11 mmHg
time to contracture ([4]; listed as Parachlorophenylalanine): significantly increased time to contracture
time to contracture ([4]; listed as parachlorophenylalanine): significantly incareased the time to contracture

CC(O)C(C)OC(=O)C1CC2c3cccc4c3c(cn4C(C)C)CC2N(C)C1 (stereo not drawn) [LY 53857]
Coronary Flow ([3]; 1 µM, 30 Min Post-Reperfusion): 12±1^a mL/min/g
HR ([3]; 1 µM, 30 Min Post-Reperfusion): 230±25 beats/min
LVDP ([3]; 1 µM, 30 Min Post-Reperfusion): 23±5^a mmHg
Coronary Flow ([3]; 1 µM, Pre-Ischemia, Post-Drug): 15 ± 1 mL/min/g
HR ([3]; 1 µM, Pre-Ischemia, Post-Drug): 257±6 beats/min
LVDP ([3]; 1 µM, Pre-Ischemia, Post-Drug): 132±6 mmHg
Coronary Flow ([3]; 1 µM, Pre-Ischemia, Pre-Drug): 17 ± 1 mL/min/g
HR ([3]; 1 µM, Pre-Ischemia, Pre-Drug): 270±5 beats/min
LVDP ([3]; 1 µM, Pre-Ischemia, Pre-Drug): 141±4 mmHg
Coronary Flow ([3]; 3 µM, 30 Min Post-Reperfusion): 13±1^a mL/min/g
HR ([3]; 3 µM, 30 Min Post-Reperfusion): 240±13 beats/min
LVDP ([3]; 3 µM, 30 Min Post-Reperfusion): 73±7^a,b mmHg
Coronary Flow ([3]; 3 µM, Pre-Ischemia, Post-Drug): 17 ± 1 mL/min/g
HR ([3]; 3 µM, Pre-Ischemia, Post-Drug): 265±8 beats/min
LVDP ([3]; 3 µM, Pre-Ischemia, Post-Drug): 144±6 mmHg
Coronary Flow ([3]; 3 µM, Pre-Ischemia, Pre-Drug): 17 ± 1 mL/min/g
HR ([3]; 3 µM, Pre-Ischemia, Pre-Drug): 274±5 beats/min
LVDP ([3]; 3 µM, Pre-Ischemia, Pre-Drug): 148±6 mmHg
Coronary Flow ([3]; 10 µM, 30 Min Post-Reperfusion): 15 ± 3 mL/min/g
HR ([3]; 10 µM, 30 Min Post-Reperfusion): 250±4 beats/min
LVDP ([3]; 10 µM, 30 Min Post-Reperfusion): 86±6^a,b mmHg
Coronary Flow ([3]; 10 µM, Pre-Ischemia, Post-Drug): 21 ± 3 mL/min/g
HR ([3]; 10 µM, Pre-Ischemia, Post-Drug): 252±12^a beats/min
LVDP ([3]; 10 µM, Pre-Ischemia, Post-Drug): 123±5 mmHg
Coronary Flow ([3]; 10 µM, Pre-Ischemia, Pre-Drug): 20 ± 3 mL/min/g
HR ([3]; 10 µM, Pre-Ischemia, Pre-Drug): 288±10 beats/min
LVDP ([3]; 10 µM, Pre-Ischemia, Pre-Drug): 130±5 mmHg
EC25 [3]: 6.1 µM
reperfusion LDH release ([3]; at 3 and 10 µM concentrations, Figure 2C): significantly reduced it

NCCc1c[nH]c2ccc(O)cc12 [5HT, serotonin]
Coronary Flow ([2]; 1 μM 5HT, Post-Drug): 16 ± 1 mL/min/g
HR ([2]; 1 μM 5HT, Post-Drug): 276±5 beats/min
LVDP ([2]; 1 μM 5HT, Post-Drug): 141±3 mmHg
Coronary Flow ([2]; 1 μM 5HT, Pre-Drug): 16 ± 1 mL/min/g
HR ([2]; 1 μM 5HT, Pre-Drug): 273±7 beats/min
LVDP ([2]; 1 μM 5HT, Pre-Drug): 145±4 mmHg
Coronary Flow ([2]; 10 μM 5HT, Post-Drug): 20 ± 2 mL/min/g
HR ([2]; 10 μM 5HT, Post-Drug): 294±11 beats/min
LVDP ([2]; 10 μM 5HT, Post-Drug): 132±7 mmHg
Coronary Flow ([2]; 10 μM 5HT, Pre-Drug): 19 ± 2 mL/min/g
HR ([2]; 10 μM 5HT, Pre-Drug): 300±7 beats/min
LVDP ([2]; 10 μM 5HT, Pre-Drug): 135±4 mmHg
Coronary Flow ([2]; 30 μM 5HT, Post-Drug): 14 ± 1 mL/min/g
HR ([2]; 30 μM 5HT, Post-Drug): 319±20 beats/min
LVDP ([2]; 30 μM 5HT, Post-Drug): 103±11 mmHg
Coronary Flow ([2]; 30 μM 5HT, Pre-Drug): 16 ± 1 mL/min/g
HR ([2]; 30 μM 5HT, Pre-Drug): 281±15 beats/min
LVDP ([2]; 30 μM 5HT, Pre-Drug): 117±5 mmHg
Coronary Flow ([2]; 100 μM 5HT, Post-Drug): 15 ± 3 mL/min/g
HR ([2]; 100 μM 5HT, Post-Drug): 369±19^a,b beats/min
LVDP ([2]; 100 μM 5HT, Post-Drug): 88±8^a,b mmHg
Coronary Flow ([2]; 100 μM 5HT, Pre-Drug): 16 ± 2 mL/min/g
HR ([2]; 100 μM 5HT, Pre-Drug): 298±10 beats/min
LVDP ([2]; 100 μM 5HT, Pre-Drug): 121±8 mmHg
effect on the severity of ischemia (time to contracture) ([2]; 1 and 10 µM concentrations): without any measurable effect
time to contracture ([2]; at 30 and 100µM, compared to vehicle, p<0.05, Figure 3): significantly reduced time to contracture
time to contracture ([2]; at >30 µM): significantly decrease time to contracture
